Earlier results on one compound are cited in patent publication US9801890B2, “Medical methods utilising high purity diaminophenothiazinium compounds” (WisTa Laboratories Ltd., priority 2004, dated 2017).

One data set relates to viruses. Particulars: in vitro.
The subject of a further data set is HIV. Particulars: laboratory tests.
In the next data set the test system is West Nile Virus. Particulars: laboratory tests.

On to `CN(C)c1ccc2nc3ccc(N(C)C)cc3[s+]c2c1.[Cl-]` [MTC, 3,7-bis(dimethylamino) phenothiazin-5-ium chloride], for which, in the data set with viruses, the viricidal activity result was “potent viricidal activity”. Further, the effectiveness against virus result in the data set with HIV and with West Nile Virus was “effective” each time.
